Experimental data published in patent publication US8771755B2, “Preparation and compositions of highly bioavailable zerovalent sulfur and uses thereof” (Nuevas Alternativas Naturales, S.A.P.I. de C.V., priority 2011, dated 2014).
Where two headings read alike, the source gives them in different places.

Key:
[1] = Percentage bioactive sulfur contained in hydrogen sulfide prodrugs; format: physicochemical
[2] = test system: superoxide formation and expression of p47phox (a subunit of NOX); conditions: Shukla et al., BJU Int. 2009; cited from earlier work
[3] = test system: pregnant rat uterine contractility; conditions: in vitro, Sidhu et al. 2001; cited from earlier work
angiogenesis = conditions: in the drinking water; via increasing VEGF expression; Givvimani et al. 2011; cited from earlier work
[4] = comparison substance; cited from earlier work
[5] = test system: patients with idiopathic oligoasthenozoospermia; assay: Prospective, randomized, double blind study in idiopathic oligoasthenozoospermia, semen analysis; format: in vivo, human; conditions: first sample (baseline, before treatment)
Method: A prospective, randomized, double blind study evaluated and approved by the Ethics Committee of the Universidad Autónoma de Nuevo León University Hospital (Monterrey, Mexico) with registration number BR09-001 was conducted. The study included patients who attended the Reproductive Biology Clinic of the University Hospital from July 2009 to September 2010 who desired to be pregnant and met the inclusion criteria. Patients between 20 and 45 years of age with a diagnosis of idiopathic oligoasthenozoospermia wishing to participate in the study after signing informed consent were included. The diagnosis of oligoasthenozoospermia was reached by performing two semen analyses on different dates with an interval of three weeks in between. To make the diagnosis, the results of the semen analyses needed to report less than 25% type A sperm motility or less than 50% type A+B sperm motility as detailed in the World Health Organization Laboratory Manual for the Examination of Human Semen and Semen-Cervical Mucus Interaction, 4th ed. New York: Cambridge University Press, 1999. Type A Motility comprised rapid progression; type B motility comprised medium progression; type C mobility comprised slow or clumsy progression; and type D mobility comprised immotile. Oligozoospermia was defined as a concentration of less than 20 million sperm per milliliter, according to the criteria of the World Health Organization. Oligoasthenozoospermia was defined as the presence of oligozoospermia and asthenozoospermia in the same patient. In each semen analysis, morphology was manually assessed using Kruger strict criteria.
Infertile patients with normal findings on semen analysis, patients who were chronic smokers or those who had been taking antioxidants in the last 6 months prior to study entry were excluded. Patients with chronic degenerative diseases such as diabetes or high blood pressure or with hormonal abnormalities were also excluded.
A complete medical history and physical examination was obtained for all patients. All study participants underwent a second semen analysis to confirm the diagnosis after a sexual abstinence of 3 to 5 days. This semen analysis was considered baseline (sample 1). On a second visit this new semen analysis was reviewed to confirm oligoasthenozoospermia and one of the 3 substances to be taken was randomly prescribed for 75 days. The substances given were 1.5 g of hydrogen sulfide prodrug as an antioxidant, 50 mg of resveratrol as an antioxidant, and 1.5 g of microcrystalline cellulose as a placebo.
Randomization of the substance given to each patient was performed by placing in a drawer at random all the containers having exactly the same color, size, and shape with the three separate substances (hydrogen sulfide prodrug, resveratrol, and placebo) without any kind of reference as to the content. […] The attending physician and the patient were unaware of the contents of the container. […] Each patient was asked to take a container at random and the container number was recorded in the patient's medical record. At the end of the study, before statistical analysis, we obtained the relationship between the numbers on the labels and the contents, grouping patients according to the substance. Each patient was given a treatment adherence form (a patient log) in order to count the days of medication and record adverse events, if these occurred, including the type and frequency.
The patients were scheduled one month after starting treatment (third visit) in order to document adverse effects and adherence to treatment.
In the next scheduled consultation (fourth visit), carried out 75 days after starting treatment; adherence was verified and adverse effects were reported. For this visit, the patients presented with 3 to 5 days of sexual abstinence for post-treatment semen analysis (sample 2). […]

[6] = sulfur capable of being converted into hydrogen sulfide in vivo, prior art prodrugs

CCCc1nn(C)c2c(=O)[nH]c(-c3cc(S(=O)(=O)N4CCN(CC(=O)Oc5ccc(-c6cc(=S)ss6)cc5)CC4)ccc3OCC)nc12 [ACS 6]
% Bioactive sulfur (w/w) [1, 6]: 3.5 % (w/w)
inhibition of expression of p47phox [2]: more than sildenafil citrate
inhibition of superoxide formation [2]: more than sildenafil citrate

O=C(Cc1ccccc1Nc1c(Cl)cccc1Cl)Oc1ccc(-c2cc(=S)ss2)cc1 [ACS 15]
% Bioactive sulfur (w/w) [1]: 6.3 % (w/w)

O=C(CCC/C=C\C[C@@H]1[C@@H](CC[C@@H](O)CCc2ccccc2)[C@H](O)C[C@@H]1O)Oc1ccc(-c2cc(=S)ss2)cc1 [ACS 67]
% Bioactive sulfur (w/w) [1]: 5.3 % (w/w)

COc1ccc2c(c1)c(CC(=O)Oc1ccc(-c3cc(=S)ss3)cc1)c(C)n2C(=O)c1ccc(Cl)cc1 [ATB 343]
% Bioactive sulfur (w/w) [1]: 5.6 % (w/w)

COc1ccc2cc(C(C)C(=O)Oc3ccc(C(N)=S)cc3)ccc2c1 (stereo not shown) [ATB 346]
% Bioactive sulfur (w/w) [1, 6]: 8.8 % (w/w)

C1COCCN1.COc1ccc(P(=S)(S)N2CCOCC2)cc1 (stereo not shown) [GYY 4137]
% Bioactive sulfur (w/w) [1]: 8.5 % (w/w)

[Na+].[Na+].[S-2] [Na2S (anhydrous), Na2S]
% Bioactive sulfur (w/w) [1]: 41 % (w/w)

[Na+].[SH-] [NaHS (anhydrous), sodium hydrogen sulfide]
uterine spontaneous contractility [3]: significant dose-dependent decreases
angiogenesis (angiogenesis): augmented angiogenesis

[S] [Pure alpha- or beta-elemental sulfur, elemental sulfur]
solubility in carbon disulfide [4]: completely soluble

Oc1ccc(C=Cc2cc(O)cc(O)c2)cc1 [Resveratrol, resveratrol]
MFR (Mobile Forms Recovery, post sperm capacitation) [5]: 0.40 × 10^6
mean sperm concentration [5]: 10.9 million per milliliter
mobile forms recovered (MFR) post-sperm capacitation [5]: 0.40 million
Motility A + B (%) ([5]; group mean): 14.43%
Normal morphology (%) ([5]; group mean): 32.06%
Sperm concentration ([5]; group mean): 10.9 × 10^6

C[S+]([O-])CCCCN=C=S (stereo not shown) [Sulforaphane]
% Bioactive sulfur (w/w) [1, 6]: 18 % (w/w)
